Assay results as given in ChEMBL document CHEMBL1201862, “PubChem BioAssay data set” (2004).
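48-hour exposure; five concentrations; linearly interpolated endpoints. Abbreviation: GI50, concentration required for 50% inhibition of growth.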 Activity calls are given as the source filed them. No stated cut-off is given here; in the data, active = GI50 up to about 1.1 µM and inactive = higher.

Key:
Assay in all cases: NCI anticancer screen, dose series, 48 h
SF-295 = system: SF-295
Malme-3M = system: Malme-3M
OVCAR-5 = system: OVCAR-5
SN12C = system: SN12C
MCF7 = system: MCF7
EKVX = system: EKVX
HCT-15 = system: HCT-15
UACC-62 = system: UACC-62
SK-OV-3 = system: SK-OV-3
SK-MEL-5 = system: SK-MEL-5
CAKI-1 = system: CAKI-1
SNB-19 = system: SNB-19
OVCAR-4 = system: OVCAR-4
OVCAR-3 = system: OVCAR-3
PC-3 = system: PC-3
Hs-578T = system: Hs-578T
UO-31 = system: UO-31
CCRF-CEM = system: CCRF-CEM
HCC 2998 = system: HCC 2998

| SMILES | GI50 (SF-295) | GI50 (Malme-3M) | GI50 (OVCAR-5) | GI50 (SN12C) | GI50 (MCF7) | GI50 (EKVX) | GI50 (HCT-15) [µM] | GI50 (UACC-62) | GI50 (SK-OV-3) | GI50 (SK-MEL-5) | GI50 (CAKI-1) | GI50 (SNB-19) | GI50 (OVCAR-4) | GI50 (OVCAR-3) | GI50 (PC-3) | GI50 (Hs-578T) | GI50 (UO-31) | GI50 (CCRF-CEM) | GI50 (HCC 2998) |
| --- | --- | --- | --- | --- | --- | --- | --- | --- | --- | --- | --- | --- | --- | --- | --- | --- | --- | --- | --- |
| Cc1cc(S(=O)(=O)N/C(=C(\C#N)C(=O)c2ccccc2)[n+]2ccc(N(C)C)cc2)c([S-])cc1Cl | > 100 µM (inactive) | 20.9 µM (inactive) | > 100 µM (inactive) | > 100 µM (inactive) | > 100 µM (inactive) | 32 µM (inactive) | > 100 | > 100 µM (inactive) | > 100 µM (inactive) | > 100 µM (inactive) | > 100 µM (inactive) | > 100 µM (inactive) | 69.8 µM (inactive) | > 100 µM (inactive) | > 100 µM (inactive) | > 100 µM (inactive) | > 100 µM (inactive) | > 100 µM (inactive) |  |
| FC(F)(Sc1ncc[nH]1)c1nc2ccccc2o1 | > 100 µM (inactive) | > 100 µM (inactive) | > 100 µM (inactive) | > 100 µM (inactive) | > 100 µM (inactive) |  | > 100 | > 100 µM (inactive) | > 100 µM (inactive) | > 100 µM (inactive) | > 100 µM (inactive) |  | > 100 µM (inactive) | > 100 µM (inactive) | > 100 µM (inactive) | 62.7 µM (inactive) | > 100 µM (inactive) | > 100 µM (inactive) | > 100 µM (inactive) |
| NCCNCCCCCCNC(=O)c1cccc2cc3ccccc3nc12 | 3.6 µM (inactive) | 3.94 µM (inactive) | 4.02 µM (inactive) | 2.42 µM (inactive) | 1.1 µM (active) | 8.59 µM (inactive) | 12.6 | 2.01 µM (inactive) |  | 3.61 µM (inactive) | 4.78 µM (inactive) | 2.67 µM (inactive) | 2.02 µM (inactive) | 2.51 µM (inactive) | 2.99 µM (inactive) | 1.88 µM (inactive) | 5.66 µM (inactive) | 1.03 µM (active) | 2.14 µM (inactive) |
| COc1ccc2c3c1O[C@H]1C(O)CCC4(O)[C@@H](C2)NCC[C@]314 (stereo not given in full) | > 100 µM (inactive) | > 100 µM (inactive) | > 100 µM (inactive) | > 100 µM (inactive) | > 100 µM (inactive) | > 100 µM (inactive) | > 100 | > 100 µM (inactive) | > 100 µM (inactive) | > 100 µM (inactive) | > 100 µM (inactive) | > 100 µM (inactive) | > 100 µM (inactive) | > 100 µM (inactive) | > 100 µM (inactive) | > 100 µM (inactive) | > 100 µM (inactive) | > 100 µM (inactive) |  |
| O=C(Oc1c(Br)cc(Br)cc1C(=O)Oc1ccccc1)C(=O)Oc1c(Br)cc(Br)cc1C(=O)Oc1ccccc1 | 31 µM (inactive) | 20.9 µM (inactive) | 24.4 µM (inactive) | 30.3 µM (inactive) | 26.7 µM (inactive) | 26.2 µM (inactive) | 20.7 | 24.8 µM (inactive) | 33.8 µM (inactive) | 17.3 µM (inactive) | 19.7 µM (inactive) | 20 µM (inactive) |  | 24.3 µM (inactive) | 20.2 µM (inactive) | 34.8 µM (inactive) | 16 µM (inactive) |  | 31 µM (inactive) |
| O=C1NC(c2c(Cl)cccc2Cl)Nc2ccccc21 (stereo not given) | 47.3 µM (inactive) | 24.8 µM (inactive) | 94.4 µM (inactive) | 65.6 µM (inactive) | 47.3 µM (inactive) | 56 µM (inactive) | 49.7 | 37 µM (inactive) | > 100 µM (inactive) | 27 µM (inactive) | 18.5 µM (inactive) | 71.3 µM (inactive) | > 100 µM (inactive) | 50.1 µM (inactive) | 71.1 µM (inactive) | 19.6 µM (inactive) | > 100 µM (inactive) | > 10 µM (inactive) |  |
| COc1ccccc1OCC(=N/NC(=O)c1ccncc1)/N=C/c1cccnc1 | > 100 µM (inactive) | > 100 µM (inactive) | > 100 µM (inactive) |  | > 100 µM (inactive) | > 100 µM (inactive) | > 100 | > 100 µM (inactive) | > 100 µM (inactive) |  | > 100 µM (inactive) | > 100 µM (inactive) | > 100 µM (inactive) | > 100 µM (inactive) | > 100 µM (inactive) | > 100 µM (inactive) |  | > 100 µM (inactive) | > 100 µM (inactive) |
| CCN(CC)CCn1ncc2c3c(=O)c4cccnc4n(CCN(CC)CC)c3ccc21 | 7.45 µM (inactive) | > 10 µM (inactive) | 9.12 µM (inactive) | 8.87 µM (inactive) | 3.22 µM (inactive) | > 10 µM (inactive) | 5.25 | > 10 µM (inactive) | > 10 µM (inactive) | > 10 µM (inactive) | > 10 µM (inactive) | > 10 µM (inactive) | 4.44 µM (inactive) | 8.11 µM (inactive) | > 10 µM (inactive) | 8.67 µM (inactive) |  | 4.98 µM (inactive) | > 10 µM (inactive) |
